# Calls of active or inactive are those of the source. The rule behind the calls is not given here.
# Experiments:
# [1] = Inhibition of AmpC beta-lactamase (unknown origin)
# [2] = target: T1, Lysine-specific demethylase 4C (Homo sapiens) (UniProt Q9H3R0); experiment: Binding affinity to N-terminal His6-tagged KDM4C (1 to 352 residues) (unknown origin) expressed in Escherichia coli Rosetta 2(DE3)pLysS at 1.7 mM by SYPRO Orange dye based thermal shift assay
# T1 sequence (whole entry): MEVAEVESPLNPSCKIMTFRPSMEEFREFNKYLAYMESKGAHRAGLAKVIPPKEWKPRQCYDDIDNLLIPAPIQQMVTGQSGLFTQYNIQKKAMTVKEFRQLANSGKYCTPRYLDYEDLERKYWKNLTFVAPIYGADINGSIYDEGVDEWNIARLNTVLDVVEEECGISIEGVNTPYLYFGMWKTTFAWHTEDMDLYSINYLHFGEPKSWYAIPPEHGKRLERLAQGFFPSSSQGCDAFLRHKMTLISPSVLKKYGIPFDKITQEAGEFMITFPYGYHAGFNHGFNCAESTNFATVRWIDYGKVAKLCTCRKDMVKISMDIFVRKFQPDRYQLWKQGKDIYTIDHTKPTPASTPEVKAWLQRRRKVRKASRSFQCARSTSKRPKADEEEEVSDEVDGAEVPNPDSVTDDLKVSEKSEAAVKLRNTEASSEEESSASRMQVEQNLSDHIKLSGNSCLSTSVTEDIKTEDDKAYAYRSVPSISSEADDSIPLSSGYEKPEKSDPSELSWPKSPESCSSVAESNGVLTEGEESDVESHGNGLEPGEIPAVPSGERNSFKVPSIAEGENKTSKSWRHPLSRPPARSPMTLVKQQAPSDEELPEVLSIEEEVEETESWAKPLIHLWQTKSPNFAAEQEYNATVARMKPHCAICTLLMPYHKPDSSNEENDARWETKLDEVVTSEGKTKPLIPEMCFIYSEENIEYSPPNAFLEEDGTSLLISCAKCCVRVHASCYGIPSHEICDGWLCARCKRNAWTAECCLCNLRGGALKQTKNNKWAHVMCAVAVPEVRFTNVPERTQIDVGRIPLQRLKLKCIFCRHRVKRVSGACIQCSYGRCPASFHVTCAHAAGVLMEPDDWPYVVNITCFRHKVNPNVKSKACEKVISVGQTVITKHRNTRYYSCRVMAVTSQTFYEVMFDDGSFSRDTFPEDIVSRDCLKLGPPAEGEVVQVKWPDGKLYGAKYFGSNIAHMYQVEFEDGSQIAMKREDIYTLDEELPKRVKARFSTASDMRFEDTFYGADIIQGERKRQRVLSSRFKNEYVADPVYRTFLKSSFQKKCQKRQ
# [3] = target: T2, Lysine-specific demethylase 4C (Homo sapiens, UniProt Q9H3R0); experiment: Inhibition of N-terminal His6-tagged KDM4C (1 to 352 residues) (unknown origin) expressed in Escherichia coli Rosetta 2(DE3)pLysS using biotinylated histone H3 (1 to 21 residues) lysine 9 trimethylated peptide/50 uM alpha-ketoglutarate as substrate/cofactor measured after 45 mins by TR-FRET assay
# T2 sequence (Q9H3R0 whole entry): T1 sequence (whole entry)
# [4] = target: T2, Lysine-specific demethylase 4C; experiment: (§1) Inhibition of N-terminal His6-tagged KDM4C (1 to 352 residues) (unknown origin) expressed in Escherichia coli Rosetta 2(DE3)pLysS using biotinylated histone H3 (1 to 21 residues) lysine 9 trimethylated peptide/2 uM alpha-ketoglutarate as substrate/cofactor measured after 45 mins by TR-FRET assay
# [5] = Induction of aggregates formation assessed as particle formation up to 10 uM by dynamic light scattering method
# [6] = target: T1, Lysine-specific demethylase 4C (Homo sapiens); experiment: as §1
SMILES,IC50 ([4]; read-out: IC50) [µM],also measured
Cc1ccccc1CNc1ccc(O)c(C(=O)O)c1,,inhibition [1]: inactive; Activity [2]: Active
O=C(Cc1ccccc1)Nc1ccc(O)c(-c2cc(C(=O)O)ccn2)c1,0.43,IC50 ([3]; read-out: IC50): 17 µM
COc1ccc(N)cc1-c1cc(C(=O)O)ccn1,310,
NC(=O)N[C@@H](Cc1c[nH]c2ccccc12)C(=O)O,18.6,
O=C(O)Cn1nnnc1COc1ccccc1,2320,
O=C(O)[C@@H]1CC(=O)N(c2nccs2)C1,676,
CC(=O)N[C@@H](CCC(=O)O)C(=O)O,2070,
O=C(O)c1cc(NCc2cccc3c2OCO3)ccc1O,15,
CCCNC(=O)NC(C)(C)C(=O)O,126,
CN1CCN(C(=O)c2ccn(CC(=O)O)n2)CC1,387,
O=C(O)c1ccnc(-c2cc(NCc3cccc4c3OCO4)ccc2O)c1,0.56,
O=C(O)c1ccnc(-c2cc(NC(=O)c3ccno3)ccc2O)c1,1.02,
O=C(O)CNC(=O)c1ccc2ccccc2n1,2810,
Nc1ccc(O)c(-c2cc(C(=O)O)ccn2)c1,8.3,
NC(=O)N[C@H](Cc1c[nH]c2ccccc12)C(=O)O,54.7,
C[C@@H](NC(=O)c1cc(Cl)ccn1)C(=O)O,1210,
Cn1nccc1CNc1ccc(O)c(-c2cc(C(=O)O)ccn2)c1,0.77,
Cn1nccc1CNc1ccc(O)c(C(=O)O)c1,58,Activity [5]: inactive
COc1ccc(CC(=O)Nc2ccc(O)c(-c3cc(C(=O)O)ccn3)c2)cc1,0.069,IC50 ([3]; read-out: IC50): 3.7 µM
N#Cc1ccc(O)c(-c2cc(C(=O)O)ccn2)c1,6,
O=C(O)c1ccnc(-c2cc(NC(=O)c3ccccc3O)ccc2O)c1,4.6,
CC(=O)Nc1ccc(O)c(-c2ccccn2)c1,,IC50 [3]: Not Active; IC50 [4]: Not Active
O=C(O)c1ccnc(-c2cc(NCc3ccc(Br)cc3)ccc2O)c1,2.5,
CC(=O)c1ccccc1-c1cc(C(=O)O)ccn1,507,
O=C(O)c1ccnc(-c2cc(NC(=O)c3cccc(O)c3)ccc2O)c1,0.46,
CC(=O)Nc1ccc(O)c(C(=O)O)c1,,inhibition [6]: inactive
O=C(Cc1cccc(Br)c1)Nc1ccc(O)c(-c2cc(C(=O)O)ccn2)c1,0.17,IC50 ([3]; read-out: IC50): 3.4 µM
Cc1cc(O)c2c(CC(=O)O)cc(=O)oc2c1,176,
CCNC(=S)Nc1ccc(O)c(C(=O)O)c1,165,
COCC(=O)Nc1ccc(O)c(C(=O)O)c1,98,Activity [5]: inactive

# Reference: ChEMBL document CHEMBL3774347, “Docking and Linking of Fragments To Discover Jumonji Histone Demethylase Inhibitors” (J Med Chem, 2016)
